In patent publication US20240226017A1, “ERODIBLE TABLET” (Eli Lilly and Company, priority 2021, published 2024):
Like-named read-outs stand apart in the source and are kept apart here. Marks after values point to notes of the source that are not given here.

What was measured:
[1] = parameters: species or system cynomolgus monkeys; conditions: cynomolgus monkey, in vivo, po
Description: High resolution liquid chromatography/mass spectrometry (HR-LC/MS) is used to measure the concentrations of Compound 2 in cynomolgus monkey plasma. Standards and controls are prepared in cynomolgus monkey plasma using Compound 2, and any dilutions required to bring samples into the quantitative range are also performed in control cynomolgus monkey plasma. To control assay variability, an IS is added to all the standards and samples.
For Studies with Examples 14, 15, 16, 17, 18, 19: Compound 2 and the IS are extracted from monkey plasma (50 μL) by protein precipitation using isopropyl alcohol and methanol (50:50 v/v). The samples are then centrifuged (4000 rpm for 10 minutes) and the supernatant is transferred to a Siricco Protein Precipitation Plate. After centrifugation (4000 rpm for 20 minutes), the samples are loaded on a Sep-Pak tC18 SPE microelution plate that is conditioned with 2% formic acid in water. […]
Pharmacokinetic (PK) parameters of Compound 2 are determined after a single 10-mg oral dose of Compound 2 in different formulations to male and female cynomolgus monkeys. […] Plasma concentrations of Compound 2 are detected through 504 hours post-dose.

[2] = human, in vivo
Description: A multiple-ascending dose study is conducted to study the safety, tolerability, and pharmacokinetics of erodible tablets containing Compound 2 administered as 3 consecutive, once-daily oral doses in healthy participants. Tablets are prepared having the composition set forth in Table 18 below using a direct compression process as described for Example 22 in Table 7 above. Average solid fraction of tablets was 0.90. The Compound 2 oral doses for this study are summarized in the following 4 “dose cohorts”: • Cohort 1, 4-mg dose: 1 tablet of 4 mg Compound 2+300 mg SNAC • Cohort 2, 8-mg dose:2 tablets of 4 mg Compound 2+300 mg SNAC • Cohort 3, 12-mg dose: 1 tablet of 12 mg Compound 2+300 mg SNAC • Cohort 4, 24-mg dose:2 tablets of 12 mg Compound 2+300 mg SNAC Sufficient participants are randomly assigned to study intervention to ensure approximately 10 evaluable participants (8 receiving Compound 2 and 2 receiving placebo) from each of 4 dose cohorts complete the study. In each cohort, eligible participants are randomly assigned to receive 3 once-daily doses of either Compound 2 or placebo. Data for the 4 cohorts are provided in Table 18 below, along with a comparison to IV data from a separate study having similar protocol design and conducted at the same clinical site.

in vivo [3] = assay: in vivo; parameters: species or system cynomolgus monkeys; conditions: cynomolgus monkey, iv
Description: Plasma concentrations of Compound 2 are determined by a LC/MS method. Compound 2 and an internal standard (IS) are extracted from 100% monkey plasma (25 μL) using 50 mM ammonium bicarbonate. After centrifugation, the supernatant is transferred and 2B10 biotinylated antibody along with 5C9 biotinylated antibody (5 μL each) are added. The samples are then centrifuged, T1 Streptavidin beads are added (20 μL) for 30 minutes, and the analyte is eluted from the beads with 30% acetonitrile with 5% formic acid in water followed by mixing. A final sample (10 μL) containing 31% acetonitrile in 10% formic acid is loaded onto a Supelco Analytical Discovery BIO Wide Pore C5-3, 5 cm×0.1 mm for LC/MS analysis. The plasma PK of Compound 2 is evaluated in male cynomolgus monkeys following a single IV dose (50 nmol/kg). Blood samples are collected over 504 hours. Plasma is harvested from blood samples by centrifugation and stored frozen until analysis. Plasma concentrations of Compound 2 are detected through 504 hours post-dose. PK parameters for one animal are extrapolated using the concentration versus time data up to 72 hours post-dose.

in vivo [4] = assay: in vivo; parameters: species or system cynomolgus monkeys; conditions: male, cynomolgus monkey, iv
Description: Plasma concentrations of Compound 1 are determined by a LC/MS method that measures intact Compound 1, peptide plus linked time extension. For each assay, Compound 1 and an IS, are extracted from 100% monkey plasma. This procedure involves initially thoroughly mixing the plasma sample (50 μl) with acetonitrile:water:formic acid (50:50:0.1; 25 μl) plus 2-propanol:methanol (50:50; 250 μl). Two distinct layers are formed upon centrifugation with Compound 1 and the IS contained in the supernatant layer. After moving 200-μL of the supernatant layer to the Sirocco Protein Precipitation plate, the plate is centrifuged (conditions). Next 600-μL of Water:Formic (100:2; 600 μl) are added to each well of the Sirocco plate, and the plate is vortexed, sealed, and centrifuged. After SPE plate conditioning, the sample from the Sirocco plate (700 μl) is transferred to a Waters, SPE plate, and centrifuged. The SPE plate, after washing, is eluted with acetonitrile:formic acid (100:2; 80 μl) into Invitrosol:water:water:formic acid 100:2 (35:15:50; 100 μl). The final sample (25 μl) is loaded onto a Waters, ACQUITY UPLC BEH C18 Column, 130 Å, (2.1 mm×100 mm, 1.7 μm). The column effluent is injected into a Sciex API 5500 mass spectrometer for detection and quantitation. Male cynomolgus monkeys are administered a single intravenous dose (0.05 mg/kg) or oral formulation (10 mg/tablet) of Compound 1. […]

## CC[C@H](C)[C@H](NC(=O)[C@H](CC(C)C)NC(=O)[C@](C)(Cc1ccc(O)cc1)NC(=O)[C@@H](CCC(=O)O)NC(=O)[C@@H](NC(=O)[C@H](Cc1ccccc1)NC(=O)[C@H](CCC(=O)O)NC(=O)C(C)(C)NC(=O)[C@H](CCC(N)=O)NC(=O)[C@H](C)NC(=O)[C@H](CCCCNC(=O)COCCOCCNC(=O)COCCOCCNC(=O)CC[C@H](NC(=O)CCCCCCCCCCCCCCCCC(=O)O)C(=O)O)NC(=O)[C@H](CCCN)NC(=O)[C@H](CC(=O)O)NC(=O)[C@H](CC(C)C)NC(=O)[C@](C)(CC(C)C)NC(=O)[C@@H](NC(=O)[C@H](CO)NC(=O)[C@H](Cc1ccncc1)NC(=O)[C@H](CC(=O)O)NC(=O)[C@H](CO)NC(=O)[C@@H](NC(=O)[C@](C)(Cc1ccccc1F)NC(=O)[C@@H](NC(=O)CNC(=O)[C@H](CCC(=O)O)NC(=O)C(C)(C)NC(=O)[C@@H](N)Cc1ccc(O)cc1)[C@@H](C)O)[C@@H](C)O)[C@@H](C)CC)[C@@H](C)CC)C(=O)N[C@@H](CCC(=O)O)C(=O)NCC(=O)NCC(=O)N1CCC[C@H]1C(=O)N[C@@H](CO)C(=O)N[C@@H](CO)C(=O)NCC(=O)N[C@@H](C)C(=O)N1CCC[C@H]1C(=O)N1CCC[C@H]1C(=O)N1CCC[C@H]1C(=O)N[C@@H](CO)C(N)=O [Compound 2, Y-Aib-EGT-αMeF(2F)-TSD-4Pal-SI-αMeL-LD-Orn-K((2-[2-(2-Amino-ethoxy)-ethoxy]-acetyl)2-(γ-Glu)-CO-(CH2)16-CO2H)AQ-Aib-EFI-(D-Glu)-αMeY-LIEGGPSSGAPPPS-NH2]
[1]
  Plasma concentrations detected through (post-dose): 504 h
[2]; 0.5 mg
  Oral Bioavailability Based on AUC (0-168): 100%
  Oral Bioavailability Based on AUC (0-∞): 100%
[2]; iv
  Dose-Normalized AUC(0-168): 22800^e ^ ng · h/mL · mg
  Dose-Normalized AUC(0-∞): 49200^e ^ ng · h/mL · mg
In vivo [3]
  Plasma concentrations detected through (post-dose): 504 h
In vivo [3]; male, 50 nmol/kg
  AUC0-inf: 84.232 µM·h
  AUC(0-inf): 84.2 µM·h
  CL: 14.2 mL/day/kg
  clearance: 14.2 mL/day/kg
In vivo [3]; male, 50 nmol/kg, Cmax
  Cmax: 1050 nM
In vivo [3]; male, 50 nmol/kg, T1/2
  half-life: 84 h
In vivo [4]; CL
  clearance: 13 mL/day/kg
In vivo [4]; T1/2
  half-life: 96 h
